Data: paper PMC5085647

Key:
U2OS cells = assay: LDH release cytotoxicity assay; assay type: cell-based, human; conditions: BTZ 10 nM, positive control, n = 3
Method: The release of LDH (Lactate dehydrogenase) was used as a marker for cell toxicity. After treatment with 50 and 100 µM SsCEI 4 for 24 h, cleared supernatants were incubated with reaction buffer for 30 min at room temperature according to the manufacturer instructions (ab65393, LDH-Cytotoxicity Assay Kit II). Absorbance was measured at 490 nm and the cytotoxicity percentage was calculated as: [(Absorbancetest sample − Absorbancelow control)/(Absorbancehigh control − Absorbancelow control) × 100].

porcine liver APEH = target: T1, porcine liver APEH (Sus scrofa, UniProt P19205); assay: APEH inhibition in cell-free assay (Ac-Ala-pNA substrate); assay type: biochemical; conditions: Figure S1A
T1 sequence (P19205 1-732): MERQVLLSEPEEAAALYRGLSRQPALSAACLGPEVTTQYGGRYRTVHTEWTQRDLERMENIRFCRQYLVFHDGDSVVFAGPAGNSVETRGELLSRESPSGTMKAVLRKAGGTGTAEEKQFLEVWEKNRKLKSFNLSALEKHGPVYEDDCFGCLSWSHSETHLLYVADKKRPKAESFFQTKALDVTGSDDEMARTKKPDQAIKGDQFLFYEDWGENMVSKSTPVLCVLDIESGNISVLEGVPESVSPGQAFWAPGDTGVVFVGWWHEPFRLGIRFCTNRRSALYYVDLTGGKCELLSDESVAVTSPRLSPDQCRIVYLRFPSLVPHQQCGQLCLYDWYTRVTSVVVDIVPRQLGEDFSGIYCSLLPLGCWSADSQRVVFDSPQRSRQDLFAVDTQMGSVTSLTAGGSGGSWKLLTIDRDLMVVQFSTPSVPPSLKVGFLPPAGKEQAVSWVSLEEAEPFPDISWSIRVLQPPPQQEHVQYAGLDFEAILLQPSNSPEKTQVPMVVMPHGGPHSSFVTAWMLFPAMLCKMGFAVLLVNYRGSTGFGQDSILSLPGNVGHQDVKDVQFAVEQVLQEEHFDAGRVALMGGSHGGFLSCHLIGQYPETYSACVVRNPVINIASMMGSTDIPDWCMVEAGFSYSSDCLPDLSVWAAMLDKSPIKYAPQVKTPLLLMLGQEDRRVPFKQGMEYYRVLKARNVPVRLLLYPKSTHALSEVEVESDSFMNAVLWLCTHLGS
Method: APEH activity was measured spectrophotometrically using the chromogenic substrate Ac-Ala-pNA (Bachem, Laufelfingen, Switzerland). […] APEH activity was expressed in IU. […] Mixtures were pre-incubated for 30 min at 37 °C before addition of the substrate, and the enzymatic activities were followed as described above. […] Enzymes incubated without inhibitors were used as controls.

[1] = system: Beclin-1 and LC3-II in U2OS cells; assay: Autophagy markers Beclin-1 and LC3-I/LC3-II (Western blot); assay type: cell-based, human; conditions: Quercetin for 2 h and overnight
Method: For Western blotting analysis, protein aliquots (30 µg/lane) were run on SDS-PAGE (8% or 12.5%) and then electroblotted onto PVDF membranes (ImmobilonTM, Millipore, Milan, Italy). Membranes were next incubated with the specific primary antibodies (1 h at room temperature) and then incubated with the appropriate dilution of secondary antibodies (1 h at room temperature). Immunocomplexes were visualized by enhanced chemiluminescence and autoradiography according to the manufacturer protocol (Santa Cruz Biotechnology) and quantified by densitometric analysis with Image J software (NIH, Bethesda, […], USA), using the β-actin and Vinculin levels as loading control for normalization.
Figure S3. […] (A, left panel)
U2OS cells were treated with DMSO (C) or SsCEI 4 (50 and 100 µM) for 72 h. Then, cell lysates were […]
harvested and subjected to immunoblotting for Beclin-1; (A, right panel) Results of densitometry of […]
Beclin-1 bands are expressed as the mean of relationships between densitometries of Beclin-1 and […]
β-actin bands, used as loading control; (B) U2OS cells were treated with DMSO (C) or SsCEI 4 (50 […]
and 100 µM) for 72 h, and cell lysates were used to analyze LC3-II conversion by immunoblotting […]
using the specific antibody against LC3, which is able to recognize both the upper LC3-I band and […]
the lower LC3-II. […]

Structure (SMILES) | Cytotoxicity (LDH release in culture medium) (U2OS cells) | Effect toward APEH activity (porcine liver APEH) | Beclin-1 and LC3-II levels (autophagy), positive control [1]
CC(C)C[C@H](NC(=O)[C@H](Cc1ccccc1)NC(=O)c1cnccn1)B(O)O [Bortezomib] | exceeding 200% | completely ineffective | –
O=c1c(O)c(-c2ccc(O)c(O)c2)oc2cc(O)cc(O)c12 [Quercetin] | – | – | strongly induced
